Like-named read-outs stand apart in the source and are kept apart here.
Columns and labels:
PPARγ LBD = target: T1, PPARγ LBD (Homo sapiens, UniProt P37231); assay: LBD-hPPARs transactivation assay (GAL4-LBD luciferase reporter in COS-7 cells); assay type: cell-based; settings: 48 h
T1 construct: expressed in transfected cells; host or cells: COS-7
T1 sequence (P37231 238-503 limits assumed): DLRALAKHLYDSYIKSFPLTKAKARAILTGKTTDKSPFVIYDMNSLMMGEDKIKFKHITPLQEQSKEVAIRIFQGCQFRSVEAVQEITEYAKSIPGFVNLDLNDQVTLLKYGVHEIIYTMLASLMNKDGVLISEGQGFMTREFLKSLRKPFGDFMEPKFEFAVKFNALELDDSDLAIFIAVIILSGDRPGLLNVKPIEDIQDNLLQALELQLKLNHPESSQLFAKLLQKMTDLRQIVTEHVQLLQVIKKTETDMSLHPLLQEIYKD
Description: LBD-hPPARs Transactivation Assay
COS-7 cells were cultivated in 24-well plates and transfected with the pFACMV plasmids that encode the chimeric proteins containing the GAL4 DNA binding domain fused to the PPARγ LBD. The reporter plasmid for the foregoing constructions was pFR-Luc, which contains five repetitions of the GAL4-response element in front of a promoter that controls the transcription of the luciferase gene. Lipofectamine was used as a transfection agent.
The plasmids of the chimeric receptors and the reporter gene were inserted in the cells by transitory transfection in COS-7 cells in culture.

GST-hPPARα = target: T2, GST-hPPARα (Homo sapiens, UniProt Q07869); assay: GST-hPPARα binding ([3H]-GW2433 displacement)
T2 construct: the complete cDNA of the […] human PPARs were cloned into pGEX4T2; made in house; host or cells: Escherichia coli BL21 (DE3)
T2 sequence (Q07869 1-468): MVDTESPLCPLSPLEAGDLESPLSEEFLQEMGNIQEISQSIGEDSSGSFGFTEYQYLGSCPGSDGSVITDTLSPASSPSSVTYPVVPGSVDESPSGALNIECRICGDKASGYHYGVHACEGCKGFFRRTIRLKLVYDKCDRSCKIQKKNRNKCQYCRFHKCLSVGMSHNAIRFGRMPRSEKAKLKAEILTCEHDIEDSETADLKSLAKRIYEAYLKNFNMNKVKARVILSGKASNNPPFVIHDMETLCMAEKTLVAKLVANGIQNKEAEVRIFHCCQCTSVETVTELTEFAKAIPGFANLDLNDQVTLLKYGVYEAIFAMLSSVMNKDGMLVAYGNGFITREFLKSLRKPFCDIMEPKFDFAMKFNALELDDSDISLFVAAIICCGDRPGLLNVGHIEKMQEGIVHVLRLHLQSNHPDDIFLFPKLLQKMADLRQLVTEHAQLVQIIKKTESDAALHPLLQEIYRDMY
Description: Cloning of Human PPARα, PPARδ and PPARγ2
The human PPARs cDNAs were amplified through RT-PCR. For hPPARα, RNA was obtained from HepG2 cells treated with linoleic acid; for h PPARδ, RNA was obtained from untreated HepG2 cells; for hPPARγ2, RNA was obtained from human white adipose tissue. Each amplified fragment was cloned into pBluescript (Stratagene®) and sequenced. One clone for each construction was selected and used as template for further subcloning and PCR amplifications.
GST-Fused Protein Construction
To generate these chimeric proteins, the complete cDNA of the […] human PPARs were cloned into pGEX4T2 (Amersham Biosciences). The fragment was obtained from the pBluescript-cDNAs clones digested with endonucleases. To assess the plasmid identity and to ensure the in-phase cloning of the proteins, pGEXs constructions were sequenced. […] Receptor purity was visualized by SDS-PAGE and protein content was determined by Bradford method. […]
Using 96-well culture plates, PPARα or PPARδ (5 μg) were diluted to a total volume of 100 μL with buffer consisting of 50 mM HEPES (pH: 7.0), 50 mM KCl, 5 mM EDTA and 10 mM DTT, in the presence of [3H]-GW2433 (100 and 50 nM for PPARα and PPARδ, respectively). […] Eluted radioactivity was quantitated by liquid scintillation counting in a Microbeta counter (Perkin Elmer).

GST-hPPARγ2 = target: T3, GST-hPPARγ2 (Homo sapiens, UniProt P37231); assay: Assay of binding to the PPARγ2 ([3H]BRL-49853 displacement)
T3 construct: the complete cDNA of the […] human PPARs were cloned into pGEX4T2; made in house; host or cells: Escherichia coli BL21 (DE3)
T3 sequence (P37231 1-505): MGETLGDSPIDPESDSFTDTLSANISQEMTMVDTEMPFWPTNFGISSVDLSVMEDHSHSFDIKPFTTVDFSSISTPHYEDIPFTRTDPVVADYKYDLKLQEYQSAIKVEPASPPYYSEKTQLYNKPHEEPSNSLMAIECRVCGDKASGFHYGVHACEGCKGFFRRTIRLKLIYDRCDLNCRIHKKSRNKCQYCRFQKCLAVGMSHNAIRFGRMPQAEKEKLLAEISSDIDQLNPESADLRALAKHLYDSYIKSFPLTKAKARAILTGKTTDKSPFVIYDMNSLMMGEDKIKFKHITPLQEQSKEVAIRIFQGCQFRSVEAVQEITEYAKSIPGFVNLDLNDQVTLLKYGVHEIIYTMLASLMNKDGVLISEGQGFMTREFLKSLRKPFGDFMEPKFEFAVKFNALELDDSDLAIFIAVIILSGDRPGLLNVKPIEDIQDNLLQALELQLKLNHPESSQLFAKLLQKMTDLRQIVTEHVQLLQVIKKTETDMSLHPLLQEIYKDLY
Experimental: Assay of Binding to the PPARγ2
The cDNA encoding for the open reading frame of the hPPARγ2 is amplified by PCR (polymerase chain reaction) and inserted in the plasmid pGEX-4T-2.
The reaction mixture was transferred to a Multiscreen Durapore (Millipore) microplate containing glutathione-Sepharose 4B in every well. The reaction mixture was left to incubate with the resin during 10 min, and then centrifuged at 735 g during 2 min. To dissociate the receptor bound to the resin, reduced glutathione 10 mM is added and incubated during 10 min. The receptor was eluted by centrifugation. Then, 800 μL of scintillation liquid were added to the elution and the contained radioactivity was quantified by liquid scintillation spectroscopy (Microbeta Wallac, Perkin Elmer).

[1] = Table 19, GST-hPPARγ2, [3H]BRL-49853 100 nM, read-out: Affinity PPARγ(1)

Functional activity PPARγ (PPARγ LBD) | Ki (GST-hPPARγ2; [1]) | Structure (SMILES) | Ki (GST-hPPARα) | Ki (GST-hPPARγ2)
Antagonist | < 1 µM | O=C(N[C@@H](Cc1ccc(OCc2ccccc2)cc1)C(=O)O)c1ccc(OCc2ccccc2Br)cc1 [Example 238, (2S)-3-(4-Benzyloxyphenyl)-2-[4-(2-bromobenzyloxy)benzoylamino]propionic acid] | – | –
Antagonist | < 1 µM | Cc1ccccc1COc1ccc(C(=O)N[C@@H](Cc2ccc(OCc3ccccc3)cc2)C(=O)O)cc1 [Example 243, (2S)-3-(4-Benzyloxyphenyl)-2-[4-(2-methylbenzyloxy)benzoylamino]propionic acid] | – | –
Partial agonist | 1 to 3 µM | Cc1nc2ccccc2nc1OCCOc1ccc(C(=O)N[C@@H](Cc2ccc(OCc3ccccc3)cc2)C(=O)N(C)C)cc1 [Example 267, N-[(1S)-2-(4-Benzyloxyphenyl)-1-dimethylcarbamoylethyl]-4-[2-(3-methylquinoxalin-2-yloxy)ethoxy]benzamide] | – | –

Second part, the compound before the results:

Structure (SMILES) | Functional activity PPARγ (PPARγ LBD) | Ki (GST-hPPARγ2; [1]) | Ki (GST-hPPARα) | Ki (GST-hPPARγ2)
O=C(N[C@@H](Cc1ccc(OCc2ccccc2)cc1)C(=O)O)c1ccc(OCc2ccccc2-c2ccccc2)cc1 [Example 184, (2S)-3-(4-Benzyloxyphenyl)-2-[4-(biphenyl-2-ylmethoxy)benzoylamino]propionic acid] | Antagonist | – | > 3 µM | < 1 µM
Cc1nc2ccccc2nc1OCCOc1ccc(C(=O)N[C@@H](Cc2ccc(F)cc2)C(=O)O)cc1 [Example 192, (2S)-3-(4-Fluorophenyl)-2-{4-[2-(3-methylquinoxalin-2-yloxy)ethoxy]benzoylamino}propionic acid] | Partial agonist | > 3 µM | – | –
CCCCc1ccc(COc2ccc(C(=O)N[C@@H](CC3CCCCC3)C(=O)O)cc2)cc1 [Example 210, (2S)-2-[4-(4-Butylbenzyloxy)benzoylamino]-3-cyclohexylpropionic acid] | Agonist | < 1 µM | – | –
CCCCc1ccc(COc2ccc(C(=O)N(CCC(=O)O)Cc3cccc(OCc4ccccc4)c3)cc2)cc1 [Example 218, 3-{(3-Benzyloxybenzyl)-[4-(4-butylbenzyloxy)benzoyl]amino}propionic acid] | Antagonist | < 1 µM | – | –
CCCCOc1ccc(COc2ccc(C(=O)N[C@@H](CC3CCCCC3)C(=O)O)cc2)cc1 [Example 237, (2S)-2-[4-(4-Butoxybenzyloxy)benzoylamino]-3-cyclohexylpropionic acid] | Partial agonist | < 1 µM | – | –

Source: US20060160894A1, “Benzamides as ppar modulators” (LABORATORIOS S.A.L.V.A.T.,S.A., priority 2003, published 2006)
